# Tested on: SCI-induced oedema
# Experiment: Example 3: spinal cord water content with aquaporin-4 relocalisation inhibitors
# Conditions: in vivo
# Protocol: The lesion site+3 mm either side for mice and the lesion site+5 mm either side for the rat DC model were dissected out and the water content of the spinal cord (as a measure of oedema) was determined at 3 days after DC and CC SCI, as described previously (S. Li, C. H. Tator, Effects of MK801 on evoked potentials, spinal cord blood flow and cord edema in acute spinal cord injury in rats. Spinal Cord 37, 820-832 (1999)). Spinal cords containing the lesion site were weighed on aluminium foil, dried at 105° C. for 24 hr, and re-weighed. The percent water content was calculated as: water content (%)=[(wet weight-dry weight)/wet weight]×100%.
# Using similar techniques to those described in Example 1, the water content in the spinal cord as a measure of injury-induced oedema was determined for various agents and aquaporin-4 inhibitors, namely TFP, PKAi, PKCi and TGN-020—see FIG. 21.
structure (smiles),measurement,value
"O=C(Nc1nncs1)c1cccnc1 [TGN-020, N-1,3,4-Thiadiazol-2-yl-3-pyridinecarboxamide]","SCI-induced oedema, water content (FIG. 21)",suppress SCI-induced oedema

# Source: patent US20230255943A1, “MMP-9 AND MMP-12 INHIBITION FOR TREATING SPINAL CORD INJURY OR RELATED INJURY TO NEUROLOGICAL TISSUE” (The University of Birmingham, priority 2020, published 2023)
